Structures can show the parent of a compound that is named as a salt.
Assay: hygroscopicity / developability characteristics of the salt form
Format: physicochemical
Conditions: solid salt form; poor developability characteristics
Description: This means that reproducibility of standard batches of drug is very difficult, and that the drug would have a very short shelf life in those countries where it is particularly needed.

relative humidity at which the salt is hygroscopic: about 60 % relative humidity
Compound: CCN(CC)CCCCCCNc1cc(OC)cc2c(C)ccnc12 [dihydrochloride salt, N,N-diethyl-N′-(6-methoxy-4-methyl-8-quinolinyl)-1,6-hexane diamine]

Source: US20100076017A1, “SITAMAQUINE TOSYLATE FOR THE TREATMENT OF LEISHMANIASIS” (priority 2006, published 2010)
